Measurements reported in the NIST ThermoML archive (doi:10.1021/je100170v).
± gives the expanded uncertainty stated by the source.

Columns and labels:
[1] = Liquid; for mass density / speed of sound: 101 kPa; for speed of sound: Sing-around technique in a fixed-path interferometer; for viscosity: 101.3 kPa
[2] = xn = mol fraction of the nth substance listed; conditions: 101 kPa, Liquid; for speed of sound: Sing-around technique in a fixed-path interferometer

CC(=O)N(C)C [N,N-dimethylethanamide]
[1]
Conditions | mass density [kg/m3] | speed of sound [m/s] | viscosity [mPa·s]
298.15 K | 937.2 ± 0.6 | 1458.2 ± 1.4 | 0.937 ± 0.031
308.15 K | 925.8 ± 0.6 | – | 0.841 ± 0.028
318.15 K | 917.1 ± 0.6 | – | 0.763 ± 0.026

CCCCCCCCO [octan-1-ol] + CC(=O)N(C)C
[2], x1 = 1
Conditions | mass density [kg/m3] | speed of sound [m/s] | viscosity [mPa·s]
298.15 K | 821.5 ± 0.8 | 1349.2 ± 1.3 | 7.365 ± 0.2
308.15 K | 814 ± 0.8 | – | 5.251 ± 0.15
318.15 K | 807.7 ± 0.8 | – | 3.865 ± 0.12

CC(=O)c1ccccc1 [acetophenone]
[1]
Conditions | mass density [kg/m3] | speed of sound [m/s] | viscosity [mPa·s]
298.15 K | 1023.1 ± 0.6 | 1296.2 ± 1.3 | 1.653 ± 0.051
308.15 K | 1014.9 ± 0.6 | – | 1.411 ± 0.044
318.15 K | 1007.2 ± 0.5 | – | 1.115 ± 0.036

CCCCCCCCO [octan-1-ol] + CC(=O)c1ccccc1
[2], x1 = 1
Conditions | mass density [kg/m3] | speed of sound [m/s] | viscosity [mPa·s]
298.15 K | 821.5 ± 0.8 | 1349.2 ± 1.3 | 7.365 ± 0.2
308.15 K | 814 ± 0.8 | – | 5.251 ± 0.15
318.15 K | 807.7 ± 0.8 | – | 3.865 ± 0.12

COCCO [2-methoxyethan-1-ol] + CCCCCCCCO
[2]
Conditions | mass density, 298.15 K [kg/m3] | mass density, 308.15 K [kg/m3] | mass density, 318.15 K [kg/m3] | speed of sound, 298.15 K [m/s] | viscosity, 298.15 K [mPa·s] | viscosity, 308.15 K [mPa·s] | viscosity, 318.15 K [mPa·s]
x2 = 0 | 959.5 ± 0.6 | 952.1 ± 0.6 | 945.8 ± 0.6 | 1339.3 ± 1.3 | 1.543 ± 0.048 | 1.256 ± 0.04 | 1.047 ± 0.034
x2 = 0.061 | 943 ± 0.6 | 935.6 ± 0.6 | 929.5 ± 0.6 | 1334.3 ± 1.3 | 1.677 ± 0.052 | 1.368 ± 0.043 | 1.141 ± 0.037
x2 = 0.1275 | 927.1 ± 0.6 | 920 ± 0.6 | 913.8 ± 0.6 | 1329.3 ± 1.3 | 1.822 ± 0.056 | 1.454 ± 0.045 | 1.209 ± 0.038
x2 = 0.2003 | 912.1 ± 0.7 | 904.9 ± 0.7 | 898.8 ± 0.7 | 1323 ± 1.3 | 1.983 ± 0.06 | 1.582 ± 0.049 | 1.304 ± 0.041
x2 = 0.2804 | 897.4 ± 0.7 | 890.5 ± 0.7 | 884.4 ± 0.7 | 1318 ± 1.3 | 2.145 ± 0.065 | 1.749 ± 0.054 | 1.426 ± 0.045
x2 = 0.3688 | 883.4 ± 0.7 | 876.4 ± 0.7 | 870.5 ± 0.7 | 1314.6 ± 1.3 | 2.408 ± 0.072 | 1.948 ± 0.059 | 1.571 ± 0.049
x2 = 0.4671 | 869.9 ± 0.7 | 862.9 ± 0.7 | 857 ± 0.7 | 1315.4 ± 1.3 | 2.774 ± 0.083 | 2.19 ± 0.066 | 1.781 ± 0.055
x2 = 0.5769 | 857 ± 0.7 | 850 ± 0.7 | 844 ± 0.8 | 1320 ± 1.3 | 3.432 ± 0.1 | 2.67 ± 0.08 | 2.062 ± 0.063
x2 = 0.7004 | 844.6 ± 0.7 | 837.6 ± 0.8 | 831.5 ± 0.8 | 1326.5 ± 1.3 | 4.238 ± 0.12 | 3.19 ± 0.095 | 2.466 ± 0.074
x2 = 0.8402 | 832.8 ± 0.8 | 825.6 ± 0.8 | 819.4 ± 0.8 | 1335.8 ± 1.3 | 5.412 ± 0.15 | 4.012 ± 0.12 | 3.064 ± 0.091

CCCCCCCCO [octan-1-ol] + COCCO
[2], x1 = 1
Conditions | mass density [kg/m3] | speed of sound [m/s] | viscosity [mPa·s]
298.15 K | 821.5 ± 0.8 | 1349.2 ± 1.3 | 7.365 ± 0.2
308.15 K | 814 ± 0.8 | – | 5.251 ± 0.15
318.15 K | 807.7 ± 0.8 | – | 3.865 ± 0.12
